# Assay results as given in patent US6399777B2, “Inclusion complexes of aryl-heterocyclic salts” (Pfizer Inc., priority 1996, dated 2002).
# Where a name gives a salt, the structure may show the parent alone.
# Tests used:
# [1] = Equilibrium solubility of ziprasidone salts in 40% (w/v) aqueous HPBCD, HPLC; assay type: physicochemical; settings: 40% (w/v) HPBCD in water, stirred four days at ambient temperature; calculated as free base
# Description: Many different experimental protocols can be envisioned and implemented. […] HPBCD was purchased commercially from Wacker Chemie.
# [2] = Solubility of ziprasidone salts in water; settings: weight of ziprasidone calculated as the free base
# [3] = Equilibrium solubility of ziprasidone salts in 40% (w/v) aqueous SBECD, HPLC; settings: in 40% SBECD; from Table 1
# Description: The following protocol illustrates the protocol employed for the instant invention using 40% aqueous cyclodextrin. The same protocol was employed for other aqueous cyclodextrin concentrations such as those used to generate FIG. 1.
# A 40% (w/v) solution of cyclodextrin (SBECD or HPBCD) in water was prepared by adding 200 g of cyclodextrin to a 500 ml beaker containing approximately 250 ml of deionized water and a magnetic stir bar. The contents were stirred until dissolution of the cyclodextrin in the water was complete, usually a time of about one hour being sufficient. The solution was then transferred to a 500 ml volumetric flask and deionized water was added to the mark. 5 ml of the volumetric solution was pipetted into a 10 ml glass vial with a screw cap. […] The vial contents were stirred for four days at ambient temperature to allow a sufficient time for equilibrium to be established. […] The contents were filtered into a clean screw cap vial through a Millex-GS 0.2 μm filter and the drug concentration determined by an HPLC method.
# Detection can be by UV absorption at a wavelength of 229 nm. Quantification can be effected facilely by comparison of HPLC peak height (or area) with the peak height (or area) taken from a standard plot of concentration vs. peak height (or area) for standards of known concentration. […]
SMILES,Solubility in 40% HPBCD [1] [μgA/ml],Solubility in water [2] [μgA/ml],Comparison of solubility among the salt candidates and cyclodextrin solutions tested [3]
"O=C1Cc2cc(CCN3CCN(c4nsc5ccccc45)CC3)c(Cl)cc2N1 [tartrate, Ziprasidone Tartrate]",12.4,180,
"O=C1Cc2cc(CCN3CCN(c4nsc5ccccc45)CC3)c(Cl)cc2N1 [free base, ziprasidone, reference compound]",,0.3,
"O=C1Cc2cc(CCN3CCN(c4nsc5ccccc45)CC3)c(Cl)cc2N1 [mesylate, Ziprasidone Mesylate]",17.3,1000,highest solubility
"O=C1Cc2cc(CCN3CCN(c4nsc5ccccc45)CC3)c(Cl)cc2N1 [esylate, Ziprasidone Esylate]",13.7,,
"O=C1Cc2cc(CCN3CCN(c4nsc5ccccc45)CC3)c(Cl)cc2N1 [aspartate, ziprasidone]",1.3,,
"O=C1Cc2cc(CCN3CCN(c4nsc5ccccc45)CC3)c(Cl)cc2N1 [hydrochloride, ziprasidone]",2.4,80,
"O=C1Cc2cc(CCN3CCN(c4nsc5ccccc45)CC3)c(Cl)cc2N1 [besylate, ziprasidone]",,80,
